From PubChem BioAssay AID504897 (Southern Research Specialized Biocontainment Screening …, 2011)
The source made the active and inactive calls. The rule behind the calls is not given here.

Columns and labels:
[1] = M. tuberculosis growth inhibition, dose response, H37Rv, 7H9 media, purified and synthesized compounds, set 6 (AID 504897); conditions: Mycobacterium tuberculosis H37Rv growth inhibition, 7H9 medium; at 100 µM (top of the series)
[2] = tested on: Mycobacterium tuberculosis H37Rv growth inhibition, 7H9 medium; experiment: as above; conditions: for IC50: measured here: IC50 of Mtb growth inhibition

Structure (SMILES) | inhibition [1] | IC90 [2] [nM] | IC50 [2] [nM]
CCC(Sc1nc2c(c(=O)[nH]1)CCC2)C(=O)Nc1cccc(OC)c1 (centres undefined) | 1.68% (inactive) |  | 
CCSc1nc(C)c(C)c(=O)[nH]1 | 0.94% (inactive) |  | 
O=C(CSc1ncccn1)NC1CCCCC1 | -0.52% (inactive) |  | 
CC(C)CCNC(=O)CSc1nc2c(c(=O)[nH]1)CCC2 |  | 947 | 722
COc1cccc(NC(=O)CSc2nc3ccccc3c(=O)[nH]2)c1 | -3.46% (inactive) |  | 
NC(=O)c1cnccn1 |  |  | > 100000
Cc1cc(Br)ccc1NC(=O)c1cnc(N2CCN(c3ccccn3)CC2)c2ccccc12 |  | 2790 | 887
Cc1ccc(C(=O)N/N=C(/CC(=O)c2cccs2)C(F)(F)F)cc1 |  | 3100 | 1930
NNC(=O)c1ccncc1 |  | 294 | 175
O=C(CSc1nc2ccccc2c(=O)[nH]1)N1CCOCC1 | 6.74% (inactive) |  | 
O=c1[nH]c(SCc2ccccc2Cl)nc2c1CCCC2 | 1.13% (inactive) |  | 
NC[C@H]1O[C@H](O[C@H]2[C@H](O)[C@@H](O[C@H]3O[C@H](CO)[C@@H](O)[C@H](N)[C@H]3O)[C@H](N)C[C@@H]2N)[C@H](O)[C@@H](O)[C@@H]1O |  | 2120 | 1390
O=C(CSc1nccc(=O)[nH]1)NC1CCCCC1 | 0.9% (inactive) |  | 
CC[N+](C)(CC)CCCCOc1ccc2c(c1)C(=O)c1cc(OCCCC[N+](C)(CC)CC)ccc1-2 |  | 2650 | 1770
Cc1nc(SCC(=O)NC2CCCC2)[nH]c(=O)c1C |  | 8890 | 5120
O=C(CSc1nc2ccccc2c(=O)[nH]1)NCc1ccc(Cl)cc1 |  | 973 | 554
CCOC(=O)CSc1nc(C)c(C)c(=O)[nH]1 | 3.07% (inactive) |  | 
Cn1c(SCC(=O)NC2CCCCC2)nc2ccccc2c1=O | -2.65% (inactive) |  | 
CCCc1cc(C(N)=S)ccn1 |  |  | 7240
CCOc1ccc(-c2cc(C)[n+](CCc3ccc(OC)c(OC)c3)c(-c3ccc(OCC)cc3)c2)cc1 |  | 954 | 568
CN(C)C(=O)CSc1nc2ccccc2c(=O)[nH]1 | 0.96% (inactive) |  | 
Cc1cc(C)n2nc(N)c(N=Nc3ccccc3)c2n1 |  | 6010 | 4940
Cc1nc(SCC(=O)N(C)c2ccccc2)[nH]c(=O)c1C | -3.37% (inactive) |  | 

Structure (SMILES) | inhibition [1] | IC90 [2] [nM] | IC50 [2] [nM]
Cc1c[nH]c(=S)[nH]c1=O | -0.98% (inactive) |  | 
CCOC1OC(=O)C(Cl)=C1Nc1ccccc1C (centres undefined) |  | 5920 | 3220
CN(C(=O)CSc1nc2ccccc2c(=O)[nH]1)C1CCCCC1 | -1.28% (inactive) |  | 
COC(=O)c1ccc(CNc2c(N3CCCC3)c(=O)c2=O)cc1 |  |  | > 100000
CC1CCN(C(=O)C2CCN(c3nnc(-n4cccc4)s3)CC2)CC1 |  | 3900 | 2750
O=C(CSc1ccccn1)NC1CCCCC1 |  |  | > 100000
Cc1ccc(NC(=O)COC(=O)CCc2c[nH]c3ccccc23)cc1[N+](=O)[O-] |  | 4370 | 1340
CN[C@@H]1[C@H](O[C@H]2[C@H](O[C@H]3[C@H](O)[C@@H](O)[C@H](N=C(N)N)[C@@H](O)[C@@H]3N=C(N)N)O[C@@H](C)[C@]2(O)C=O)O[C@@H](CO)[C@H](O)[C@H]1O |  | 176 | 101
O=C(CSc1nc2c(c(=O)[nH]1)CCCC2)NC1CCCCC1 |  | 81 | < 37
CCC(Sc1nc2ccccc2c(=O)[nH]1)C(=O)Nc1cccc(OC)c1 (centres undefined) | 4.58% (inactive) |  | 
CCCCNC(=O)CSc1nc2ccccc2c(=O)[nH]1 |  | 1210 | 55
Cc1[nH]c(=S)[nH]c(=O)c1C | -0.2% (inactive) |  | 
Cc1nc(SCC(=O)NCCC(C)C)[nH]c(=O)c1C |  | 8750 | 4900
Cc1cccc(/C=C/C(=O)c2ccc([N+](=O)[O-])o2)c1 |  | 938 | 495
CC(C)NC(=O)CSc1nc2ccccc2c(=O)[nH]1 |  | 14200 | 5840
CC(C)CNC(=O)CSc1nc2ccccc2c(=O)[nH]1 |  | 432 | 173
Nc1c(C(=O)NC2CCCCC2)nsc1C(=O)OCC(=O)NC1CCCCC1 |  | 7450 | 2130
COC(=O)C(C)Oc1ccc(Cc2ncc(C(F)(F)F)cc2Cl)cc1 (centres undefined) |  | 6750 | 3500
COC(=O)C(Nc1nc(SCC(=O)NC2CCCCC2)nc2ccccc12)c1ccccc1 (centres undefined) | 9.91% (inactive) |  | 
CCSc1nc2ccccc2c(=O)[nH]1 | -6.01% (inactive) |  | 
Cc1[nH]c2ccccc2c1C(=O)COC(=O)c1ccc([N+](=O)[O-])s1 |  |  | > 67400
CN1CCC(NC(=O)CSc2nc3ccccc3c(=O)[nH]2)CC1 | -4.24% (inactive) |  | 
COc1c(N2CCNC(C)C2)c(F)cc2c(=O)c(C(=O)O)cn(C3CC3)c12 (centres undefined) |  | 162 | 113

Structure (SMILES) | inhibition [1] | IC90 [2] [nM] | IC50 [2] [nM]
O=c1[nH]c(=S)[nH]c2ccccc12 | -4.69% (inactive) |  | 
Cc1nc(SCC(N)=O)[nH]c(=O)c1C | -2.86% (inactive) |  | 
CNC(=O)CSc1nc2ccccc2c(=O)[nH]1 |  | 68100 | 43900
O=C(CSc1nc2ccccc2c(=O)[nH]1)NC1CCCC1 |  | 535 | 89
CC(Sc1nc2ccccc2c(=O)[nH]1)C(=O)NC1CCCCC1 (centres undefined) | -1.17% (inactive) |  | 
CCC(Sc1nc2ccccc2c(=O)[nH]1)C(=O)NC1CCCCC1 (centres undefined) | 1.35% (inactive) |  | 
CC1CCN(C(=O)CSc2nc3ccccc3c(=O)[nH]2)CC1 | 3.89% (inactive) |  | 
c1ccc(/N=C2\N=C(Nc3ccccn3)c3ccccc32)nc1 |  | 1760 | 1180
Cc1cccc(-c2oc3ccc(-c4ccc5c(c4)OCO5)cc3c2C#Cc2cncn2C)c1 |  | 2980 | 2410
Cc1cc(=O)[nH]c(=S)[nH]1 | -3.5% (inactive) |  | 
Cc1cc(=O)[nH]c(SCC(=O)NC2CCCCC2)n1 | 0.97% (inactive) |  | 
COc1ccc(NC(=O)CSc2nc3ccccc3c(=O)[nH]2)cc1 | 1.71% (inactive) |  | 
Cc1nc(SCc2ccccc2Cl)[nH]c(=O)c1C | -10.5% (inactive) |  | 
CC(C)CCNC(=O)CSc1nc2ccccc2c(=O)[nH]1 |  | < 136 | < 81
NC(=O)CSc1nc2ccccc2c(=O)[nH]1 | 3.52% (inactive) |  | 
O=C(CSc1nc2c(c(=O)[nH]1)CCC2)NC1CCCCC1 |  | < 69 | < 34
Cc1cnc(SCC(=O)NC2CCCCC2)[nH]c1=O | 0.5% (inactive) |  | 
COc1cccc(NC(=O)CSc2nc3c(c(=O)[nH]2)CCC3)c1 | -0.07% (inactive) |  | 
Nc1cc(=O)[nH]c(SCC(=O)NC2CCCCC2)n1 | -4.53% (inactive) |  | 
Cc1ccc(NC(=O)CSc2nc3ccccc3c(=O)[nH]2)cc1Cl | -4.35% (inactive) |  | 
CC(C)N=c1cc2n(-c3ccc(Cl)cc3)c3ccccc3nc-2cc1Nc1ccc(Cl)cc1 |  | 396 | 67
Cc1nc(SCC(=O)NC2CCCCC2)[nH]c(=O)c1C |  | 1320 | < 6
